# Results taken from patent US20250051458A1, “Methods for Treating Neurodegeneration Targeting IGF1/IGF1R” (The Schepens Eye Research Institute, Inc., priority 2021, published 2025).
# Entries after “also recorded” stand apart in the source; their conditions may differ.
# Legend:
# [1] = target: IGF-1R on mouse microglia (primary retinal and brain microglia, BV2 cell line) (mouse) (UniProt Q60751); experiment: cell-based or functional assay
# [2] = system: human microglial cell line; experiment: qPCR of IL-6 induction in LPS+ATP-stimulated human microglial cell line (IGF1R agonist / IGF1 antibody screen); format: cell-based; details: treatment 6 hours after LPS+ATP; compared with various IGF1 antibodies
# Protocol: FIG. 8. Screening for anti-human IGF1 agonist antibody with a counter-inflammatory effect on microglial activation. Result of qPCR measuring levels of pro-inflammatory cytokine IL-6 induction in human microglial cell line that were stimulated by LPS and ATP (LPS+ATP) followed by treatment with IGF1R agonist Rg5 or various IGF1 antibodies 6 hours after LTP+ATP administration. […] Error bar=SEM. *P<0.05 by one way ANOVA.
# qPCR was used to measure levels of pro-inflammatory cytokine IL-6 induction in a human microglial cell line stimulated by LPS and ATP (LPS+ATP) followed by treatment with IGF1R agonist Rg5 or various IGF1 antibodies 6 hours after LTP+ATP administration.
# [3] = system: ischemic optic neuropathy in mice; experiment: Mouse model of ischemic optic neuropathy, intravitreal injection; format: in vivo; details: intravitreal injections at days 1, 8 and 17 post injury; 4 weeks after induction
# Excerpt: FIG. 9. Rescue of RGC function and vision by intravitreal injection of IGF1R agonist in a mouse model of ischemic optic neuropathy. Quantifications of electroretinogram positive scotopic threshold response (pSTR) amplitudes, visual acuity and contrast sensitivity before (Baseline) and at 4 weeks (4 wks) after induction of ischemic optic neuropathy in mice received intravitreal injections of control or RG5 IGF1R agonist at day 1, 8 and 17 post injury. Error bar=SEM. *P<0.05 by one way ANOVA.
# The adult mice were dark adapted in a dark adaptation chamber overnight before conducting ERG. […] The pSTR was measured from the baseline to the peak of the positive deflection. […]
# The mouse was placed on a small platform in the middle of the optomotor chamber. […] The contrast at a given spatial frequency is calculated using the formula (Lmax−Lmin)/(Lmax+Lmin) where Lmax is the brightness (in cd/m^2) of the white stripe, and Lmin is the brightness of the black stripe (in cd/m^2). Contrast level, stripe width, grating speed, and direction of stripe movement (clockwise vs. counterclockwise) were measured. According to the tracking of head movements on the mouse to the moving stripes, the visual acuity and contrast sensitivity can be measured. […] By changing the stripe width and the contrast, visual acuity and contrast sensitivity of mice can be assessed. […]
# Sequence of UniProt Q60751 (Q60751 31-1373): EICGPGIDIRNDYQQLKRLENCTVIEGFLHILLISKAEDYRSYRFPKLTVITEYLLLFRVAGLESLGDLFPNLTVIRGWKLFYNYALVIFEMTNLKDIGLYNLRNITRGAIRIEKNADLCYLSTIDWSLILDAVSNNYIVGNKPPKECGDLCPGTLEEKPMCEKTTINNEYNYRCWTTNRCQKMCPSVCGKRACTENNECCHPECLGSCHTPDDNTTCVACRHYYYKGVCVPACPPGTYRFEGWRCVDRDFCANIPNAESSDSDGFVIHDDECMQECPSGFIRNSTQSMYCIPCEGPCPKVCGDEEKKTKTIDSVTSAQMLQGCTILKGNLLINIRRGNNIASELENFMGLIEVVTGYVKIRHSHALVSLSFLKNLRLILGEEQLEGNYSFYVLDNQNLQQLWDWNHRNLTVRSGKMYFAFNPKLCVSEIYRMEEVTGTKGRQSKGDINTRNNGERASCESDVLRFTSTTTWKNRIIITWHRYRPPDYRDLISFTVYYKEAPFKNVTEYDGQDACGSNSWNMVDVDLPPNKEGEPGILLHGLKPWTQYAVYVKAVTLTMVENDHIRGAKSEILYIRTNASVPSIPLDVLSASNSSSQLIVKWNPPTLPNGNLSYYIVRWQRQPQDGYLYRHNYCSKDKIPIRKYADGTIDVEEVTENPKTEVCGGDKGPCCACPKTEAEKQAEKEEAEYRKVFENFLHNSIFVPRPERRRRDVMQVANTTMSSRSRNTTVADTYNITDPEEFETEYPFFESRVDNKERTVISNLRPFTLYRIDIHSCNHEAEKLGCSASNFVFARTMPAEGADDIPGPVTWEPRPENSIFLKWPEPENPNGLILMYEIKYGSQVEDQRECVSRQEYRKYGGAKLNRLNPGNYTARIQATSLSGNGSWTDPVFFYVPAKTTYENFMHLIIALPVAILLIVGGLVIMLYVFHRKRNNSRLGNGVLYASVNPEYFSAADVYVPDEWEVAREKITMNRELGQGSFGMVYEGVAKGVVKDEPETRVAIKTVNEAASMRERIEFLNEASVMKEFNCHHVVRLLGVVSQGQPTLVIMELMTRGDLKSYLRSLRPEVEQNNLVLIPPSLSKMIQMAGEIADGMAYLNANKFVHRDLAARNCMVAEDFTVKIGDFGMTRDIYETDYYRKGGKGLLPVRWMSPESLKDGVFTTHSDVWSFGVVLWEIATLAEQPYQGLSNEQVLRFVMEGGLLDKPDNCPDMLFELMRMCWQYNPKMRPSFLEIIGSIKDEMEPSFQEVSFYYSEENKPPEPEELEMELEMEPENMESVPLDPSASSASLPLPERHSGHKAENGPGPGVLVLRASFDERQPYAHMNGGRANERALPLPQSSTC
"PI3K phosphorylation (Western blot, BV2 microglia) [1]",Compound,Anti-inflammatory effect on IL-6 induction (qPCR) [2],"RGC function (pSTR amplitudes) and vision (visual acuity, contrast sensitivity) [3]"
8 fold,"insulin-like growth factor binding protein like protein 1 (IGFBPL1), recombinant (R&D system, 4130-BL) (from UniProt Q80W15 18-270) (ligand)",,
,"CC(C)=CC/C=C(\C)[C@H]1CC[C@]2(C)[C@@H]1[C@H](O)C[C@@H]1[C@@]3(C)CC[C@H](O[C@@H]4O[C@H](CO)[C@@H](O)[C@H](O)[C@H]4O[C@@H]4O[C@H](CO)[C@@H](O)[C@H](O)[C@H]4O)C(C)(C)[C@@H]3CC[C@]12C [Rg5, ginsenoside RG5]",largest anti-inflammatory effect; also recorded: greatest anti-inflammatory effect,protects RGC function and vision against ischemic optic neuropathy-induced functional loss
